Where “and” joins values, the source holds several entries; their conditions need not be identical. Equal entries are not always repeated. Structures can show the parent of a compound that is named as a salt.
Experiments:
[1] = Osmolality measurements: contribution of amphipathic base to osmotic pressure of salt solutions (aggregation); assay type: physicochemical; details: for % of expected value of osmolality contribution / Level of aggregation / Expected contribution of 25 mM amphipathic base to osmolality (calibrated in DDW and NaCl): 25 mM base; for Expected contribution of 25 mM amphipathic base to osmolality (calibrated in DDW and NaCl): pure water or NaCl solutions; for Osmolality of agent: 25 mM in DDW (pure water); for mOsm versos mM (slope); extent of dissociation: slope of osmolality (mOsm) versus concentration (mM)
Protocol: Level of aggregation of the exemplified agents was evaluated by measuring osmotic pressure. Osmotic pressure is a colrgative property, depending on the actual concentration (particles per unit volume) of a solution. Thus, in case of aggregate formation in a solution, the actual concentration of the solution will be lower than the theoretical concentration of the solution, which will be evident by a lower than expected osmotic pressure.
For osmotic pressure measurements, double distilled water (DDW) obtained using Water ProPlus (Labconco, Kansas City, Mo., USA) was used for all solutions. Osmolality was measured using a 5500 Vapor Pressure Osmometer (Wescor Inc., Logan, Utah, USA) or freezing point osmometer μOSMETIE MicroOsmometer of Precision Systems (atich, MA, USA). Calibration curves of TMN, AO, and BUP osmolality in the range of 10-40 mM in pure water were used to describe the relationship between concentration and osmotic pressure of all compounds.
The effect of salts on the osmotic pressure of the amphipathic base (25 mM) was also examined by comparing the effect of NaCl with that of various ammonium salts. As a control, the osmotic pressure of each salt alone was also measured.

[2] = Aggregation of BUP and AO with dextran sulfate (DS); assay type: physicochemical; details: for Mole ratio weak base/DS at which aggregation (precipitation) starts: dextran sulfate
Description: The dependence of the aggregation process on the loaded molecule was shown by the examples of BUP and AO. […] This however can be modified through the use of sodium salt of dextran sulfate as an additional counter ion. […]

[3] = Partition coefficient (Kp) octanol/water; assay type: physicochemical
Description: Other parameters that may influence kinetics of release include the lipophilicity of the loaded agent and the liposome trapped volume. The higher the lipophilicity, the faster will be the release rate of the agent from the liposome. The lipophilicity of a compound may be reflected by its partition coefficient (Kp) is between octanol and water.

[4] = Conductivity measurements of salts; assay type: physicochemical; details: salt 50 mM in DDW
Protocol: Solutions in concentration range of 0.5-50 mM of NaCl and ammonium salts were prepared in DDW and measured in an “Oyster” conductivity meter (KTech).

[5] = Kinetics of TMN leakage from egg PC MLV; details: for Leakage from liposomes: 4° C.

Compound	% of expected value of osmolality contribution ([1]; ammonium chloride 40 mM) [%]	% of expected value of osmolality contribution ([1]; ammonium chloride 80 mM) [%]	Level of aggregation ([1]; ammonium chloride 80 mM)	% of expected value of osmolality contribution ([1]; ammonium citrate 40 mM) [%]	% of expected value of osmolality contribution ([1]; ammonium citrate 80 mM) [%]	Level of aggregation ([1]; ammonium citrate 80 mM)	% of expected value of osmolality contribution ([1]; ammonium glucuronate 40 mM) [%]	% of expected value of osmolality contribution ([1]; ammonium glucuronate 80 mM) [%]	Level of aggregation ([1]; ammonium glucuronate 80 mM)	% of expected value of osmolality contribution ([1]; ammonium phosphate 40 mM) [%]	% of expected value of osmolality contribution ([1]; ammonium phosphate 80 mM) [%]	% of expected value of osmolality contribution ([1]; ammonium sulfate 40 mM) [%]	% of expected value of osmolality contribution ([1]; ammonium sulfate 80 mM) [%]	Level of aggregation ([1]; ammonium sulfate 80 mM)	Expected contribution of 25 mM amphipathic base to osmolality (calibrated in DDW and NaCl) [1]	Osmolality of agent [1] [mOsm]	Measured contribution of 25 mM base to osmolality ([1]; ammonium chloride 40 mM) [mOsm]	Measured contribution of 25 mM base to osmolality ([1]; ammonium chloride 80 mM)	Measured contribution of 25 mM base to osmolality ([1]; ammonium citrate 40 mM) [mOsm]	mOsm versos mM (slope); extent of dissociation [1]	also measured
CCCCN1CCCCC1C(=O)Nc1c(C)cccc1C (stereo not drawn) [BUP, bupivacaine]	97	100	None//None	100	91	None	100	100	None//None	97	84	97	88	None	32±5 mOsm and 32 mOsm	32	31	30 mOsm and 32 mOsm	32		Level of aggregation ([1]; ammonium phosphate 80 mM): None//|Low; Measured contribution of 25 mM base to osmolality ([1]; ammonium citrate 80 mM): 25 mOsm and 29 mOsm; Measured contribution of 25 mM base to osmolality ([1]; ammonium glucuronate 40 mM): 33 mOsm; Measured contribution of 25 mM base to osmolality ([1]; ammonium glucuronate 80 mM): 31 mOsm and 32 mOsm; Measured contribution of 25 mM base to osmolality ([1]; ammonium phosphate 40 mM): 30 mOsm; Measured contribution of 25 mM base to osmolality ([1]; ammonium phosphate 80 mM): 30 mOsm and 27 mOsm; Measured contribution of 25 mM base to osmolality ([1]; ammonium sulfate 40 mM): 31 mOsm; Measured contribution of 25 mM base to osmolality ([1]; ammonium sulfate 80 mM): 29 mOsm and 28 mOsm; Ratio at which aggregation reaches a plateau ([2]; DS 10,000 Da): 50 nmole AO or BUP per 1 mmole DS; Mole ratio weak base/DS at which aggregation (precipitation) starts [2]: 1.0; Partition coefficient (Kp) octanol/water ([3]; pH 6, 250 mM (NH4)2SO4): 0.35 (at pH 6, 250 mM (NH4)2SO4)
N.O=C[C@H](O)[C@@H](O)[C@H](O)[C@H](O)C(=O)O [NH4 glucuronate, Ammonium glucuronate]																				1.62	Conductivity [4]: 3.88 mS/cm
CC1(C)CC(N)CC(C)(C)N1[O] [TMN, 2,2,6,6-tetramethylpiperidine-4-amino-1-oxyl]	100	60	medium	62	20	high	95	90	None	71	20	19	0	complete	21 mOsm	21	21	12 mOsm	13		Leakage from liposomes ([5]; ammonium chloride gradient): less than 10%; Leakage from liposomes ([5]; ammonium glucuronate gradient): less than 10%; Leakage from liposomes ([5]; ammonium sulfate gradient, until 144 hr): no TV leakage was observed; Order of encapsulation stability by ammonium salt ([5]; 25° C. and 37° C.): (NH4)2SO4>>NH4Cl>NH4 glucuronate; Level of aggregation ([1]; ammonium chloride 40 mM): Low; Level of aggregation ([1]; ammonium citrate 40 mM): Medium; Level of aggregation ([1]; ammonium glucuronate 40 mM): None; Level of aggregation ([1]; ammonium phosphate 40 mM): Medium; Level of aggregation ([1]; ammonium phosphate 80 mM): high; Level of aggregation ([1]; ammonium sulfate 40 mM): High; Aggregation in NaCl solutions ([1]; NaCl): lack of aggregate formation; Ranking of extent of aggregation with ammonium salts ([1]; Tables Ia, Ib, Ic): ammonium sulfate>ammonium citrate=ammonium phosphate>>ammonium chloride>ammonium glucuronate; Measured contribution of 25 mM base to osmolality ([1]; ammonium citrate 80 mM): 5 mOsm; Measured contribution of 25 mM base to osmolality ([1]; ammonium glucuronate 40 mM): 20 mOsm; Measured contribution of 25 mM base to osmolality ([1]; ammonium glucuronate 80 mM): 19 mOsm; Measured contribution of 25 mM base to osmolality ([1]; ammonium phosphate 40 mM): 15 mOsm; Measured contribution of 25 mM base to osmolality ([1]; ammonium phosphate 80 mM): 5 mOsm; Measured contribution of 25 mM base to osmolality ([1]; ammonium sulfate 40 mM): 4 mOsm; Measured contribution of 25 mM base to osmolality ([1]; ammonium sulfate 80 mM): 0 mOsm; Partition coefficient (Kp) octanol/water ([3]; pH 7, 150 mM (NH4)2SO4): 0.04 (at pH 7, 150 mM (NH4)2SO4)
CN(C)c1ccc2cc3ccc(N(C)C)cc3nc2c1 [AO, Acridine orange hemi(zinc chloride) salt]	100	100	None//None	96	90	Low	100	100	None//None	92	79	94	85	Low	48±4 mOsm and 48 mOsm	48	49	51 mOsm and 48 mOsm	46		Measured contribution of 25 mM base to osmolality ([1]; ammonium citrate 80 mM): 43 mOsm; Measured contribution of 25 mM base to osmolality ([1]; ammonium glucuronate 40 mM): 48 mOsm; Measured contribution of 25 mM base to osmolality ([1]; ammonium glucuronate 80 mM): 50 mOsm and 48 mOsm; Measured contribution of 25 mM base to osmolality ([1]; ammonium phosphate 40 mM): 44 mOsm; Measured contribution of 25 mM base to osmolality ([1]; ammonium phosphate 80 mM): 41 mOsm and 38 mOsm; Measured contribution of 25 mM base to osmolality ([1]; ammonium sulfate 40 mM): 45 mOsm; Measured contribution of 25 mM base to osmolality ([1]; ammonium sulfate 80 mM): 44 mOsm and 41 mOsm; Ratio at saturation of precipitation ([2]; DS 8,000 Da): 40; Ratio at saturation of precipitation ([2]; DS 10,000 Da): 50; Ratio at which aggregation reaches a plateau ([2]; DS 10,000 Da): 50 nmole AO or BUP per 1 mmole DS; Mole ratio weak base/DS at which aggregation (precipitation) starts [2]: 1; Partition coefficient (Kp) octanol/water ([3]; pH 5.5, 120 mM (NH4)2SO4): 9.00 (at pH 5.5, 120 mM (NH4)2SO4)
N.N.N.O=C(O)CC(O)(CC(=O)O)C(=O)O [(NH4)3 citrate, ammonium citrate, tribasic]																				3.45	Conductivity [4]: 11.96
Cl.N [NH4Cl, Ammonium chloride]																				1.96	
N.N.O=P(O)(O)O [(NH4)2HPO4, ammonium phosphate, dibasic]																				2.83	
N.N.O=S(=O)(O)O [(NH4)2SO4, ammonium sulfate]																				2.97	
[Cl-].[Na+] [NaCl]																				2.00	
